Laboratory results taken from ChEMBL document CHEMBL4715869, “N-(Pyrimidin-2-yl)-1,2,3,4-tetrahydroisoquinolin-6-amine Derivatives as Selective Janus Kinase 2 Inhibitors for the Treatment of Myeloproliferative Neoplasms” (J Med Chem, 2020).
The source made the active and inactive calls. The rule behind the calls is not given here.

What was measured:
[1] = test system: BaF3; experiment: Antitumor activity against mouse BAF3 cells harboring JAK2 V617F mutant implanted in Balb/c mouse assessed as decrease in spleen weight at 30 mg/kg, po qd administered starting from day 4 to 20 and measured on day 25 relative to control; format: functional; parameters: scale not given: the % may be the effect or the level left; settings: time 21 day
[2] = Elimination half life in male Sprague-Dawley rat at 5 mg/kg, iv administered […] measured upto 24 hrs by LC/MS/MS analysis; format: ADME, organism-based; settings: in vivo, read-out: beta t1/2 (converted)
[3] = test system: SET-2; experiment: Induction of apoptosis in human SET-2 cells assessed as necrotic cells at 0.4 uM incubated for 24 hrs by Annexin V/PI staining based flow cytometric analysis (reference value: 0.78%); format: functional
[4] = Cmax in male Sprague-Dawley rat at 5 mg/kg, po administered via gavage measured upto 24 hrs by LC/MS/MS analysis; format: ADME, organism-based; parameters: route oral, dose 5 mg/kg, time <=24; settings: in vivo
[5] = target: Tyrosine-protein kinase JAK1 (Homo sapiens, UniProt P23458); experiment: Inhibition of human JAK1 (866 to end residues) using GEEPLYWSFPAKKK as substrate after 40 mins by [gamma-33ATP] radiometric assay
Chain of Tyrosine-protein kinase JAK1 (P23458 whole entry): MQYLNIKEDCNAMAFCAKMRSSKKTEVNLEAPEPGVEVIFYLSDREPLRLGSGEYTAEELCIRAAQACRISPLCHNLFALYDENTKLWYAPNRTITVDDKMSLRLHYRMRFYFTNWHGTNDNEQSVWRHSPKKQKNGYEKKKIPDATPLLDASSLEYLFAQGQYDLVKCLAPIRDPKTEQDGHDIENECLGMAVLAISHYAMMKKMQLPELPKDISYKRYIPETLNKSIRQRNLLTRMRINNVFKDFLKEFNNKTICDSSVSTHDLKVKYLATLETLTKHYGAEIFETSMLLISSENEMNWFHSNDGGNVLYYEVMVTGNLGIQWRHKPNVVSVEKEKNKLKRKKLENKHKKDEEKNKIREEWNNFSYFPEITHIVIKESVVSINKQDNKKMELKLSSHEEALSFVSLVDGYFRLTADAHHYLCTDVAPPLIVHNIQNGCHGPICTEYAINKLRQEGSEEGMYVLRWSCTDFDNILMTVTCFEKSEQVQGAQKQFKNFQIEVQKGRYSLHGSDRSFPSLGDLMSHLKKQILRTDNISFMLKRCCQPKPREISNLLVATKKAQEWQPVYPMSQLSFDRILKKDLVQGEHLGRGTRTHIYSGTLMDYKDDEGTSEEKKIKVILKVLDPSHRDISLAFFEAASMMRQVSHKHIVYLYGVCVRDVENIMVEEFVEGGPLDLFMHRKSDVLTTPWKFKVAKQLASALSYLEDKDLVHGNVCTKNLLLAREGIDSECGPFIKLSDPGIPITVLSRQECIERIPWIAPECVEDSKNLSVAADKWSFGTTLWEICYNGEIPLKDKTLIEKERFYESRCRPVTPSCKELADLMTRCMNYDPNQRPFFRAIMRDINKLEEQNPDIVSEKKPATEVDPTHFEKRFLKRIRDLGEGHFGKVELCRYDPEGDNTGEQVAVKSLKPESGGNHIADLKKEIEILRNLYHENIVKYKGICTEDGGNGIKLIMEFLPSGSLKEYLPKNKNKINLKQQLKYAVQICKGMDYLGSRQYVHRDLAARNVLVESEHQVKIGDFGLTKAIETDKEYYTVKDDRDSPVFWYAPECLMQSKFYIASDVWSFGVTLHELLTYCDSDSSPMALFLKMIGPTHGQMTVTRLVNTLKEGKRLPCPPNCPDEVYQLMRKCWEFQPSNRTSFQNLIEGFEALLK

[6] = Tmax in male Sprague-Dawley rat at 5 mg/kg, iv administered […] measured upto 24 hrs by LC/MS/MS analysis; format: ADME, organism-based; settings: in vivo
[7] = test system: Mus musculus; experiment: In vivo inhibition of JAK2 V617F mutant in mouse BAF3 cells xenografted Balb/c nude mouse assessed as decrease in STAT5 phosphorylation in spleen at 30 to 60 mg/kg, po qd administered starting from day 4 to 20 and measured on day 25 by Western blot analysis; format: functional, organism-based; settings: dose 30-60 mg/kg, time 21.0 day
[8] = test system: SET-2; experiment: Induction of apoptosis in human SET-2 cells assessed as late apoptotic cells at 0.05 uM incubated for 24 hrs by Annexin V/PI staining based flow cytometric analysis (reference value: 1.52%); format: functional
[9] = test system: SET-2; experiment: Induction of apoptosis in human SET-2 cells assessed as early apoptotic cells at 0.05 uM incubated for 24 hrs by Annexin V/PI staining based flow cytometric analysis (reference value: 1.47 %); format: functional
[10] = Cytotoxicity against rat H9c2(2-1) cells assessed as reduction in cell viability incubated for 72 hrs by MTT assay; format: cell-based; settings: H9c2, 72 h
[11] = test system: Receptor-type tyrosine-protein kinase FLT3 (Homo sapiens), P36888 [UNDEFINED MUTATION]; experiment: Inhibition of FLT3 ITD mutant in human MOLM13 cells assessed as residual activity at 100 nM relative to control; format: cell-based; settings: MOLM-13
[12] = target: Receptor-type tyrosine-protein kinase FLT3 (Homo sapiens) (UniProt P36888); experiment: Inhibition of FLT3 in human SET2 cells assessed as decrease in AKT phosphorylation at 1 to 1000 nM after 2 hrs by Western blot analysis; format: cell-based; settings: dose 1-1000 nM
[13] = test system: SET-2; experiment: Induction of apoptosis in human SET-2 cells assessed as late apoptotic cells at 0.4 uM incubated for 24 hrs by Annexin V/PI staining based flow cytometric analysis (reference value: 1.52%); format: functional
[14] = Cmax in male Sprague-Dawley rat at 5 mg/kg, iv administered […] measured upto 24 hrs by LC/MS/MS analysis; format: ADME, organism-based; parameters: route intravenous, dose 5 mg/kg, time <=24; settings: in vivo
[15] = test system: BaF3; experiment: Antitumor activity against mouse BAF3 cells harboring JAK2 V617F mutant implanted in Balb/c mouse assessed as decrease in liver weight at 30 mg/kg, po qd administered starting from day 4 to 20 and measured on day 25 relative to control; format: functional; parameters: scale not given: the % may be the effect or the level left; settings: time 21 day
[16] = Oral bioavailability in Sprague-Dawley rat at 5 mg/kg administered via gavage measured upto 24 hrs by LC/MS/MS analysis; format: ADME, organism-based; settings: in vivo
[17] = target: Signal transducer and activator of transcription 3 (Mus musculus) (UniProt P42227); experiment: Inhibition of STAT3 phosphorylation in mouse BAF3 cells at 1000 nM after 2 hrs by Western blot analysis; format: cell-based
Chain of Signal transducer and activator of transcription 3 (Mus musculus) (P42227 whole entry): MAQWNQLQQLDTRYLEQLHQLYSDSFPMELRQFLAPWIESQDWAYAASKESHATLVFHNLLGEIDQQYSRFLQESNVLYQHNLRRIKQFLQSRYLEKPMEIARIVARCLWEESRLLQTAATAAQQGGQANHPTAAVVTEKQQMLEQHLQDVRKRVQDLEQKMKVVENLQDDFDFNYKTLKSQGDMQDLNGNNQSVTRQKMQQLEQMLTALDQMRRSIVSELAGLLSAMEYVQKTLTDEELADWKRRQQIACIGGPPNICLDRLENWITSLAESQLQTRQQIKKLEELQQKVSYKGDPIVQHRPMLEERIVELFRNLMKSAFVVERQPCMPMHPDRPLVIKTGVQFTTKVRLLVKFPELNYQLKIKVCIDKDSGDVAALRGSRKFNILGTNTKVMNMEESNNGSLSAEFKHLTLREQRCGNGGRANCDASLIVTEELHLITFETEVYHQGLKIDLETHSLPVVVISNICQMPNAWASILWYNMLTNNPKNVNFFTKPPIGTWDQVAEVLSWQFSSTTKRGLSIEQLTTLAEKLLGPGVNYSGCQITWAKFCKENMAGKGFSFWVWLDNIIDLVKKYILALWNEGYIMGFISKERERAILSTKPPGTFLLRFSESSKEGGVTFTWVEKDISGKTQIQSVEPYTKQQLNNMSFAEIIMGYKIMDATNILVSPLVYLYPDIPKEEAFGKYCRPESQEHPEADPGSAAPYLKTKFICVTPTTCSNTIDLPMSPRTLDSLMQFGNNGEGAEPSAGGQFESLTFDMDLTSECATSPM

[18] = target: Tyrosine-protein kinase JAK2 (Homo sapiens, UniProt O60674); experiment: Inhibition of recombinant human JAK2 (808 to end residues) KTFCGTPEYLAPEVRREPRILSEEEQEMFRDFDYIADWC as substrate measured after 40 mins in presence of [gamm33P]ATP by scintillation counting method
Chain of Tyrosine-protein kinase JAK2 (O60674 whole entry): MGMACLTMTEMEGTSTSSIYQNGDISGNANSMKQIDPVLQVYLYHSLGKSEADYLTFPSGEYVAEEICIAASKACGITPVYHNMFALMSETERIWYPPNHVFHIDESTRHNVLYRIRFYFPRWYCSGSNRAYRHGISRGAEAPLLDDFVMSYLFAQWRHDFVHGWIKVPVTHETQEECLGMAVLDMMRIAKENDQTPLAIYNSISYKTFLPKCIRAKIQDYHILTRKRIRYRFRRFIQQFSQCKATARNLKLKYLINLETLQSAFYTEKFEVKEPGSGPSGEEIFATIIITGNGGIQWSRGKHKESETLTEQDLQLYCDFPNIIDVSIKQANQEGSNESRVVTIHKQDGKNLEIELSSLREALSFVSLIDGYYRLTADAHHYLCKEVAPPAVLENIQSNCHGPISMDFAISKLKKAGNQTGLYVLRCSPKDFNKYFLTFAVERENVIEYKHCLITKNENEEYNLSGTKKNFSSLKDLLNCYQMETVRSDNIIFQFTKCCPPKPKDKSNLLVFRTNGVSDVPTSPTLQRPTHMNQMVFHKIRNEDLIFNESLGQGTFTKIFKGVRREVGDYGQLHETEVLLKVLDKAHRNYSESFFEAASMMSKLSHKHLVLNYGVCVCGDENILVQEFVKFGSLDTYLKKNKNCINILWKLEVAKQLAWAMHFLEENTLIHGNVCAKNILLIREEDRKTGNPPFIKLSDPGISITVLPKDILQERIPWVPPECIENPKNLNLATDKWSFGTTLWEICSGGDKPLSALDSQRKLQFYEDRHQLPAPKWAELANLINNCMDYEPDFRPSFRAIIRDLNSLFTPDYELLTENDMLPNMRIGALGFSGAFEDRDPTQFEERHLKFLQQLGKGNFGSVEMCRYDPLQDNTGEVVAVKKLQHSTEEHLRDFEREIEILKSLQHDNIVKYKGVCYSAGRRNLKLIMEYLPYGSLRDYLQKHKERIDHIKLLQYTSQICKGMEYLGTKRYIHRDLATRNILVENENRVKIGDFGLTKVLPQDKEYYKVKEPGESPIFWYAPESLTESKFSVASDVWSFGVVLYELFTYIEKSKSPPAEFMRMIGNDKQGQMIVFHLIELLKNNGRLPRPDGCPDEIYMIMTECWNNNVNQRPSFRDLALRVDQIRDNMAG

[19] = test system: SET-2; experiment: Induction of apoptosis in human SET-2 cells assessed as late apoptotic cells at 0.8 uM incubated for 24 hrs by Annexin V/PI staining based flow cytometric analysis (reference value: 1.52%); format: functional
[20] = AUC (0 to t) in Sprague-Dawley rat at 5 mg/kg, iv administered […] measured upto 24 hrs by LC/MS/MS analysis; format: ADME, organism-based; parameters: route intravenous, dose 5 mg/kg, time <=24; settings: in vivo
[21] = test system: SET-2; experiment: Induction of apoptosis in human SET-2 cells assessed as live cells at 1.6 uM incubated for 24 hrs by Annexin V/PI staining based flow cytometric analysis (reference value: 96.23 %); format: functional
[22] = target: Receptor-type tyrosine-protein kinase FLT3 (Homo sapiens, UniProt P36888, D835Y); experiment: Inhibition of recombinant human FLT3 D835Y mutant (564 to end residues) using EAIYAAPFAKKK as substrate at 40 mins in presence of [gamma-33ATP] by scintillation counting based radiometry assay
[23] = test system: SET-2; experiment: Induction of apoptosis in human SET-2 cells assessed as necrotic cells at 0.2 uM incubated for 24 hrs by Annexin V/PI staining based flow cytometric analysis (reference value: 0.78%); format: functional
[24] = Toxicity in NOD/SCID mouse xenografted with human SET2 cells assessed as animal survival at 15 mg/kg, po qd administered for 16 days and measured every 2 days; format: organism-based; settings: in vivo, 384 h, time 16 day
[25] = test system: BaF3; experiment: Antitumor activity against mouse BAF3 cells harboring JAK2 V617F mutant implanted in Balb/c mouse assessed as decrease in spleen weight at 60 mg/kg, po qd administered starting from day 4 to 20 and measured on day 25 relative to control; format: functional; parameters: scale not given: the % may be the effect or the level left; settings: time 21 day
[26] = Selectivity index, ratio of IC50 for inhibition of recombinant human JAK3 (781 to end residues) to IC50 for inhibition of recombinant human JAK2 (808 to end residues)
[27] = species on record: Homo sapiens; experiment: Selectivity index, ratio of IC50 for inhibition of FLT3 ITD mutant in human MOLM13 cells to IC50 for inhibition of JAK2 V617F mutant in human SET-2 cells; format: cell-based

## Cc1cnc(Nc2ccc3c(c2)CCN(C(=O)/C=C/CN(C)C)C3)nc1-c1cnn(C(C)C)c1
[1]
  Activity: 44%
[2]
  half-life: 4 h
[3]
  Activity: 0.48%
[4]
  Cmax: 51.1 ng/mL
[5]
  IC50: 42 nM
[6]
  Tmax: 4.8 min
[7]
  inhibition: Active
[8]
  Activity: 2.34%
[9]
  Activity: 2.7%
[10]
  IC50: 6930 nM
[11]
  Activity: 54%
[12]
  inhibition: inactive
[13]
  Activity: 8.68%
[14]
  Cmax: 479 ng/mL
[15]
  Activity: 36.2%
[16]
  bioavailability: 25.7%
[17]
  inhibition: inactive
[18]
  IC50: 3 nM
[19]
  Activity: 40.19%
[20]
  AUC(0-t) at 24 h: 988 ng·h/mL
[21]
  Activity: 23.03%
[22]
  IC50: 62 nM
[23]
  Activity: 0.63%
[24]
  Activity: Non-Toxic
[25]
  Activity: 77.1%
[26]
  Ratio IC50: 31
[27]
  Ratio IC50: 75.2
